Tests used:
Assay in all cases: relative viability (nuclei count vs DMSO), 5 days (fraction); higher = more cells survive
IU1-47 + Foretinib = compound: CC1=CC(=C(N1C2=CC=C(C=C2)Cl)C)C(=O)CN3CCCCC3 [IU1-47] + COc1cc2c(Oc3ccc(NC(=O)C4(C(=O)Nc5ccc(F)cc5)CC4)cc3F)ccnc2cc1OCCCN1CCOCC1 [Foretinib] (partner 0.25 µM)
Outline: (§1)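 Relative viability equals treated-well nuclei counts divided by vehicle-well nuclei counts. Counts came from 4× images of lung cancer cell lines grown in 1536-well plates for 5 days after pin-tool dosing on the day after seeding. Dosing used one drug alone or a fixed anchor-drug dose plus five library-drug doses (not always all listed) in √10 steps, and values are medians of duplicate plates.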

FG-4592 + Trametinib = compound: Cc1nc(C(=O)NCC(=O)O)c(O)c2ccc(Oc3ccccc3)cc12 [FG-4592] + CC(=O)Nc1cccc(-n2c(=O)n(C3CC3)c(=O)c3c(Nc4ccc(I)cc4F)n(C)c(=O)c(C)c32)c1 [Trametinib] (partner 0.02 µM)
Outline: as §1

IU1-47 + Vorinostat = compound: CC1=CC(=C(N1C2=CC=C(C=C2)Cl)C)C(=O)CN3CCCCC3 [IU1-47] + O=C(CCCCCCC(=O)Nc1ccccc1)NO [Vorinostat] (partner 1 µM)
Outline: as §1

FG-4592 + Navitoclax = compound: Cc1nc(C(=O)NCC(=O)O)c(O)c2ccc(Oc3ccccc3)cc12 [FG-4592] + CC1(C)CCC(c2ccc(Cl)cc2)=C(CN2CCN(c3ccc(C(=O)NS(=O)(=O)c4ccc(N[C@H](CCN5CCOCC5)CSc5ccccc5)c(S(=O)(=O)C(F)(F)F)c4)cc3)CC2)C1 [Navitoclax] (partner 0.5 µM)
Outline: as §1

Cell Line	relative viability (IU1-47 + Foretinib; first compound 0.08 µM)	relative viability (IU1-47 + Foretinib; first compound 0.253 µM)	relative viability (IU1-47 + Foretinib; first compound 0.8 µM)	relative viability (IU1-47 + Foretinib; first compound 8 µM)	relative viability (FG-4592 + Trametinib; first compound 0.08 µM)	relative viability (FG-4592 + Trametinib; first compound 0.253 µM)	relative viability (FG-4592 + Trametinib; first compound 0.8 µM)	relative viability (FG-4592 + Trametinib; first compound 2.53 µM)	relative viability (FG-4592 + Trametinib; first compound 8 µM)	relative viability (IU1-47 + Vorinostat; first compound 0.08 µM)	relative viability (IU1-47 + Vorinostat; first compound 0.253 µM)	relative viability (IU1-47 + Vorinostat; first compound 0.8 µM)	relative viability (IU1-47 + Vorinostat; first compound 2.53 µM)	relative viability (IU1-47 + Vorinostat; first compound 8 µM)	relative viability (FG-4592 + Navitoclax; first compound 0.08 µM)	relative viability (FG-4592 + Navitoclax; first compound 0.253 µM)	relative viability (FG-4592 + Navitoclax; first compound 0.8 µM)	relative viability (FG-4592 + Navitoclax; first compound 2.53 µM)	relative viability (FG-4592 + Navitoclax; first compound 8 µM)	relative viability (IU1-47 + Foretinib; first compound 2.53 µM)
NCI-H1734	0.89	0.888	0.844	0.765	0.719	0.631	0.618	0.733	0.559	0.902	0.859	0.778	0.542	0.816	0.854	0.776	0.838	0.814	0.787	
NCI-H1755	0.932	0.926	0.961	0.934	0.792	0.74	0.729	0.827	0.725	0.82	0.895	0.799	0.828	0.668	0.989	0.977	0.937	0.997	1.01	0.973
NCI-H1793	0.75	0.764	0.765	0.688		0.453		0.434	0.4	0.628		0.77	0.64	0.686	0.335	0.384		0.291	0.238	
NCI-H1915	1.12	1.12	1.15	1.1	0.304	0.266	0.274	0.287	0.258	0.541	0.572	0.533	0.371	0.509	0.744	0.733	0.838	0.778	0.786	
NCI-H1944	1.03	0.954	0.905	0.759	0.426	0.409	0.464	0.422	0.371	0.567	0.59	0.593	0.5	0.524	1.07	1.03	0.962	1.03	0.907	0.824
NCI-H1975	0.967	0.949	0.971	0.858	0.33	0.292	0.337	0.24	0.184	0.733	0.756	0.795	0.664	0.594	1.21	1.1	1.29	1.1	1.06	1.1
NCI-H1993	0.84	0.76	0.735	0.748	0.556	0.516		0.479	0.507	0.635	0.858	0.819	0.835	0.718	0.946	0.907	0.696	1.09	0.898	0.843
NCI-H2009	1.24	1.25	1.18	1.23	0.32	0.181	0.262	0.31	0.162	0.761	0.783	0.72	0.656	0.668	1.2	1.18	1.21	1.05	1.22	1.22
NCI-H2023	0.75	0.722	1	0.719	0.488	0.595	0.612	0.593	0.506	0.699	0.767	0.668	0.497	0.748	0.991	1	1.12	0.94	0.829	

— the supplement of paper PMC10307832
